Assay results as given in publication PMC5786788, “Antimicrobial Octapeptin C4 Analogues Active against Cryptococcus Species” (Antimicrobial Agents and Chemotherapy, 2018).
Where two headings read alike, the source gives them in different places. Where a SMILES comes first, the peptide text is derived from it. Bridges are numbered along the chain shown (N, C = ends). [ ]: non-standard residue; d: D form. The star is where a group is joined. Decanoyl(3R-OH) = CCCCCCC[C@@H](O)CC(=O)*; dDab = NCC[C@@H](N)C(=O)O; Dab = NCC[C@H](N)C(=O)O

Experiments:
C. gattii MMRL 2651 = system: C. gattii MMRL 2651
Procedure: (§1) A broth microdilution assay was initially used to characterize the antifungal activity of the cyclic lipopeptides ([39], [40]). […] common pathogenic yeasts (C. albicans, C. glabrata, C. parapsilosis, C. neoformans, and C. gattii) and one pathogenic mold (A. fumigatus) were tested to determine the MIC for each compound (Table 1) using broth microdilution. […] The only structural difference between these molecules is the presence of a phenylalanine residue at position 6 in PMB; in PME a D-leucine is present at this location (Fig. 1).
(§2) Fungal strains were stored in 15% glycerol at −80°C until use. The fungal strains used were H99 (C. neoformans type strain) ([55]), cap59Δ (an acapsular H99 mutant) ([56]), ATCC 90113 (C. neoformans), MMRL 2651 (C. gattii), ATCC 90028 (Candida albicans), ATCC 90030 (Candida glabrata), ATCC 22019 (Candida parapsilosis), and ATCC MYA 3626 (Aspergillus fumigatus). Yeasts were cultured in liquid (1% yeast extract, 2% Bacto peptone, 2% glucose) or solid (additional 2% agar) yeast extract-peptone-dextrose (YPD) media at 30°C and maintained at 4°C for no longer than 2 weeks. A. fumigatus was prepared on potato dextrose medium at 30°C and maintained at 4°C for no longer than 2 weeks.
(§3) The MICs of the yeast strains for PMB, PME, and octapeptin C4 and its derivatives were determined in accordance with CLSI M27-A2 guidelines using YNB (Becton Dickinson, USA) medium supplemented with 10 mM ammonium sulfate and 2% glucose, a final inoculum concentration of 1.5 × 10^3 to 2.0 × 10^3 cells/ml, and incubation at 35°C for 72 h ([39]). […] The MICs for PMB, PME, and octapeptin C4 for A. fumigatus were determined in accordance with the CLSI M38-A2 guidelines ([40]) using synthetic RPMI 1640 medium (with glutamine, without bicarbonate and with phenol red; Life Technologies, USA). The final inoculum concentration was 0.4 × 10^4 to 5 × 10^4 cells/ml, with incubation at 35°C for 48 h. […] All assays were completed in triplicate. Fluconazole was used as a positive control where the MIC was determined at both 50% growth (in accordance with CLSI M27-A2 guidelines) and when there was a “no visible growth” reading.

C. neoformans ATCC 90113 = settings: ATCC 90113, 72 h
Procedure: as §1, §2, §3

C. neoformans H99 = settings: H99, 72 h
Procedure: as §1, §2, §3

[1] = system: C. neoformans H99 (cap59Δ); assay type: cell-based, Cryptococcus neoformans; settings: Table 2; triplicate, values consistent across replicates
From the text: The different susceptibility of C. neoformans and C. gattii to PMB compared to other pathogenic fungi such as C. albicans and A. fumigatus has been postulated to arise from differences in cell surface composition ([38]). One key difference is the presence of a negatively charged polysaccharide capsule in Cryptococcus spp. proposed to concentrate the cationic lipopeptides at the cell surface ([38]). To examine this potential interaction for the octapeptin series, a C. neoformans cap59Δ mutant strain deficient in the secretion of negatively charged glucuronoxylomannan (an α1–3-linked mannan containing β1,2 and β1,4 xylosyl substitutions, as well as β1,2-linked glucuronyl residues) ([41], [42]), was tested against octapeptin C4 in comparison to PMB.
as §2, §3

Row | SMILES | MICs against various Cryptococcus strains: MMRL 2651 (C. gattii MMRL 2651; Table 2, C. gattii, triplicate, values consistent across replicates) [µg/mL] | MICs against various Cryptococcus strains: ATCC 90113 (C. neoformans ATCC 90113) [µg/mL] | MICs against various Cryptococcus strains: H99 (C. neoformans H99) [µg/mL] | MICs against various Cryptococcus strains: H99 (cap59Δ) [1] [µg/mL] | MICs against various Cryptococcus strains: MMRL 2651 (C. gattii MMRL 2651; 72 h) [µg/mL]
1 | CCCCCCC[C@@H](O)CC(=O)N[C@H](CCN)C(=O)N[C@H]1CCNC(=O)[C@H](CC(C)C)NC(=O)[C@H](CCN)NC(=O)[C@H](CCN)NC(=O)[C@H](CC(C)C)NC(=O)[C@@H](Cc2ccccc2)NC(=O)[C@H](C)NC1=O [Compound P3] ({Decanoyl(3R-OH)}-[dDab][Dab]A[dF]L[Dab][Dab]L; lactam 2-C) | 12.5 | 6.25 | 6.25 | 12.5 | –
2 | CCCCCCC[C@@H](O)CC(=O)N[C@H](CCN)C(=O)N[C@H]1CCNC(=O)[C@H](CC(C)C)NC(=O)[C@H](CCN)NC(=O)[C@H](CCN)NC(=O)[C@H](CC(C)C)NC(=O)[C@@H](C)NC(=O)[C@H](CCN)NC1=O [Compound P4D] ({Decanoyl(3R-OH)}-[dDab][Dab][Dab][dA]L[Dab][Dab]L; lactam 2-C) | – | 12.5 | 12.5 | 50.0 | 25.0
3 | CCCCCCC[C@@H](O)CC(=O)N[C@H](CCN)C(=O)N[C@H]1CCNC(=O)[C@H](CC(C)C)NC(=O)[C@H](CCN)NC(=O)[C@H](CCN)NC(=O)[C@H](CC(C)C)NC(=O)[C@H](C)NC(=O)[C@H](CCN)NC1=O [Compound P4L] ({Decanoyl(3R-OH)}-[dDab][Dab][Dab]AL[Dab][Dab]L; lactam 2-C) | – | 25.0 | 50.0 | 100.0 | 100
4 | CCCCCCC[C@@H](O)CC(=O)N[C@H](CCN)C(=O)N[C@H]1CCNC(=O)[C@H](CC(C)C)NC(=O)[C@H](CCN)NC(=O)[C@H](CCN)NC(=O)[C@H](C)NC(=O)[C@@H](Cc2ccccc2)NC(=O)[C@H](CCN)NC1=O [Compound P5] ({Decanoyl(3R-OH)}-[dDab][Dab][Dab][dF]A[Dab][Dab]L; lactam 2-C) | – | 12.5 | 12.5 | 50.0 | 25.0
